Assay results: patent US20210308120A1, “Use of Amitriptyline for Blocking Brain Hemichannels and Method for Potentiating its Effect in Vivo” (THERANEXUS, priority 2015, published 2021)
“Also recorded” adds a separate entry of the source.

Legend:
[1] = Pharmacokinetics of amitriptyline/mefloquine in plasma and brain of mice (LC-MS); format: in vivo, mouse
Experimental: Data are presented as mean±SEM.
Adult male C57BL/6J mice (Charles River, L'Arbresle, France) were used. Mice were kept in collective cages for habituation to the facility for one week before experimental testing with food and water ad libitum. Mice were maintained on a light/dark cycle of 12 hours with light onset at 8h00 and with a controlled temperature of 21° C.±1° C.
Injections were done twice.
On day 18th of treatment, mice received the morning injection and samplings were done 2 hours after the injection. Mice were anesthetized just before sampling (ketamine 68 mg/kg, xylazine 10 mg/kg) and blood was collected by intracardiac puncture (Vacuette tubes, with lithium/heparin gel). The mouse was then decapitated, and the brain extracted and fast frozen in dry ice.
Vacuette tubes with blood were centrifugated (3000 rpm, 20 min), plasma recovered and stored at −80° C. until shipping in dry ice.

[2] = tested on: SN-CCI rats (neuropathic pain, hyperalgesia); experiment: Randall & Selitto test in SN-CCI rats, repeated administration every 150 minutes; format: in vivo, rat; details: mefloquine 1 mg/kg with amitriptyline i.p. every 150 min; at 90 and 240 min
Experimental: (§1) One week after their arrival, rats were anesthetized with sodium pentobarbital before exposing the common sciatic nerve. As described in Bennett's article, four chromic catgut (5-0) ligations were tied loosely proximally to the sciatic trifurcation (Bennett and Xie, 1988).
(§2) All behavioral assessments were conducted between 9 a.m. and 5 p.m. in a quiet room. An increasing pressure was applied to the right hind paw of SN-CCI (Sciatic Nerve-Chronic Constriction Injury) rat to evaluate hyperalgesia-like behavior (Viguier and al, 2013). Values correspond to the pressure threshold producing the paw withdrawal and then the vocalization of the rat.

[3] = tested on: neuropathic mice (cuff model, allodynia); experiment: Mechanical allodynia, von Frey test in sciatic nerve cuff model; format: in vivo, mouse; details: for Synergy with amitriptyline in vivo: combined with amitriptyline (FIGS. 7 and 11), 0.5 mg/kg
Experimental: Paw withdrawal thresholds of mice treated with either amitriptyline 6 mg/kg alone (AMIT 6) or amitriptyline 12 mg/kg alone (AMIT 12) are also shown (D). FIG. 10 (E) represents area under curve analysis.
Area under curve analysis are shown (B).
Neuropathic pain was induced to adult male C57BL/6J mice (Charles River, L'Arbresle, France) by cuffing the main branch of the right sciatic nerve (For detailed description and video illustration: Yalcin et al. 2014, J Vis Exp 89:e51608). Surgeries were performed under ketamine (68 mg/kg)/xylazine (10 mg/kg) intraperitoneal (i.p.) anesthesia (Centravet, Tadden, France). The common branch of the right sciatic nerve was exposed and a cuff of PE-20 polyethylene tubing (Harvard Apparatus, Les Ulis, France) of standardized length (2 mm) was unilaterally inserted around it (Cuff group). The shaved skin was closed using suture.
Injections were done once a day during the 17 first days of treatment, in the afternoon. As a single dose per day was ineffective, treatment was then done twice a day, morning and afternoon, from the 8 last days of treatment.
Mechanical allodynia was tested using von Frey hairs and results were expressed in grams (For detailed description and video illustration: Yalcin et al. 2014, J Vis Exp 89:e51608). Tests were done during the morning, starting at least 2 hours after lights on. Mice were placed in clear Plexiglas boxes (7 cm×9 cm×7 cm) on an elevated mesh screen. Calibrated von Frey filaments (Bioseb, Vitrolles, France) were applied to the plantar surface of each hindpaw until they just bent, in a series of ascending forces up to the mechanical threshold. Filaments were tested five times per paw and the paw withdrawal threshold was defined as the lower of two consecutive filaments for which three or more withdrawals out of the five trials were observed.
Mice were subjected to sciatic nerve cuffing and then tested with the von Frey test to evaluate allodynia quantified as pressure threshold.
Mice were subjected to sciatic nerve cuffing and then tested with the von Frey test to evaluate allodynia quantified as pressure threshold. Neuropathic mice, characterized by a decrease of pressure threshold after surgery, were then treated during 25 days and tested by the von Frey test during this period.

[4] = tested on: SN-CCI rats (neuropathic pain, hyperalgesia); experiment: Randall & Selitto test in SN-CCI rats, chronic 14-day administration; format: in vivo, rat; details: 14 days; for Potentiation of amitriptyline anti-hyperalgesic effect: combined with amitriptyline 12 mg/kg, mefloquine or MFA 0.5 mg/kg i.p. twice a day
From the text: Data are the means±S.E.M. of n=8-14 rats.
Data are the means±S.E.M. of n=8-14 rats. *p<0.05, **p<0.01, ***p<0.001 as compared with “saline+saline” group at the same time, ≠p<0.05 as compared between amitriptyline groups, two-way ANOVA, Bonferroni test.
as §1, §2
Osmotic mini-pumps (Alzet, model 2ML2), delivering for the following 14 days amitriptyline or vehicle were subcutaneously implanted.
a) Rats were ligated on sciatic nerve and then tested with the Randall & Selitto test 14 days after surgery, to evaluate hyperalgesia quantified as pressure threshold. Neuropathic rats, characterized by a decrease of pressure threshold after surgery, were then treated during 14 days and tested by the Randall & Selitto test during this period.

mice subjected to FST = experiment: Forced Swim Test (FST); format: in vivo, mouse; details: amitriptyline 12 mg/kg + mefloquine 1 mg/kg per os; 2nd 3-min period
Experimental: The FST is the most used rodent model for screening antidepressants (Porsolt et al, 1977). Mice were dropped individually in a glass cylinder (25 cm high, 9 cm diameter) filled with 10 cm 25° C. water. The experiment was recorded with a camcorder, placed in front of the glass cylinders. Video were scored at a later time by an experimenter blind to the treatments. The indices of depression-related behavior are the immobility time, the swimming time and the climbing time.
FST test evaluates the despair behavior which is commonly reversed by antidepressants. During FST, the swimming time of each mouse was measured on each 1-min period, on 1st and 2nd 3-min periods.

Cx43 hemichannels = molecular target: T1, Cx43 hemichannels (Mus musculus, UniProt P23242); experiment: Hemichannel activity by ethidium bromide uptake in LPS-treated mouse cortical astrocyte cultures; format: cell-based; details: 24 hours; for HC activity (ethidium bromide uptake) after LPS-induced opening: LPS 1 μg/mL and mefloquine or MFA 10 μM; for Degree of Cx43 hemichannel inhibition, MFA compared with mefloquine: both 10 μM, LPS 1 μg/mL
T1 construct: Astrocyte cultures were prepared from cortex of rats and mice as previously described; endogenous in cells; host or cells: secondary cultures of mouse cortical astrocytes, LPS-treated
T1 sequence (P23242 whole entry): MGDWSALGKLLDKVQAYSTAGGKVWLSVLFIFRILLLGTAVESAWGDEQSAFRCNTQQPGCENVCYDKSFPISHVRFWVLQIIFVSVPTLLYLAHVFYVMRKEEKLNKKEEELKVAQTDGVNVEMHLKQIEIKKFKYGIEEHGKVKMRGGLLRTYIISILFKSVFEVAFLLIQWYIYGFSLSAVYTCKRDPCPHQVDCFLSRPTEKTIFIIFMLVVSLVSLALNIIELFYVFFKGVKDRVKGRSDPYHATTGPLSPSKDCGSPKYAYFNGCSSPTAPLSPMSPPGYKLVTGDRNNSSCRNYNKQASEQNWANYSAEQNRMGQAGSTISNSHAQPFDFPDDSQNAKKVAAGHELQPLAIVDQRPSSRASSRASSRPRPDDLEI
Experimental: Astrocyte cultures were prepared from cortex of rats and mice as previously described (Meme et al., 2006). Cells were seeded on polyornithine coated 35 mm dishes (5×10^5 cells/dish) or into 100-mm diameter plastic dishes at the density of 3×10^6 cells/dish. After 8-10 days, when cells grown into 35 mm in diameter plastic culture dishes have reached confluence, 1 μM of cytosine-arabinoside was added to the culture medium. In addition, when cells grown into 100 mm plastic culture dishes reached confluence, they were harvested with trypsin-EDTA. Then, cells were re-plated (2×10^5 cells per well), as secondary cultures, on glass coverslips placed inside 24-round-well plate. Finally, they were grown to confluence and cytosine-arabinoside was added. Medium was changed twice a week for all cells until the experiments were carried out. Hemichannel activity was evaluated in secondary cultures of cortical astrocytes by Ethidium Bromide (EtBr) uptake as already published (Orellana et al, 2011). 24 h before experiment, cells were pretreated or not with 1 μg/ml LPS known to open Cx43 HeC. The day of experiment, cells were first preincubated in HEPES buffer solution. Then, cells were exposed to 5 μM EtBr for 10 min at room temperature. Cells were then washed with the same buffer before fixation with 4% paraformaldehyde in PBS. Fixed cells were examined at 40× with a confocal laser-scanning microscope. Stacks of 10 consecutive confocal images taken at 0.49 μm intervals were acquired. For each experimental condition, 6 images were captured and then analyzed with Image J program (NIH software). LPS was added to mouse cortical astrocytic cultures during 24 hours to open Cx43 hemichannels and amitriptyline was also added during the same time to evaluate its action on hemichannel activity, quantified by cell uptake of ethidium bromide.

[5] = cited from earlier work
[6] = amitriptyline 12 mg/kg s.c. osmotic pump, mefloquine 0.5 mg/kg i.p. twice a day, vs saline

O[C@H](c1cc(C(F)(F)F)nc2c(C(F)(F)F)cccc12)[C@@H]1CCCCN1 (relative stereo) [mefloquine, (R*, S*)-(±)-α-2-piperidinyl-2,8-bis (trifluoromethyl)-4-quinolinemethanol]
Concentrations in blood and brain tissue ([1]; amitriptyline 6, 12 mg/kg, mefloquine 0.1, 0.3, 1 mg/kg i.p., 18 days, 2 hours after injection): dose-dependent
Effect on concentrations of amitriptyline in blood and brain ([1]; even for the highest doses of mefloquine): does not induce an increase
Mefloquine concentrations in plasma and brain at optimal in vivo potentiation ([1]; mice, FIG. 12): micromolar scale
Potentiation of amitriptyline anti-hyperalgesic effect [2]: significantly improved the anti-hyperalgesic effect of amitriptyline
Potentiation of amitriptyline antiallodynic effect ([3]; mefloquine 0.1, 0.33, 1 mg/kg i.p. with amitriptyline 6 mg/kg, 25 days): significantly potentiated amitriptyline 6 mg/kg
Antiallodynic effect of combination ([3]; mefloquine 0.1 and 0.33 mg/kg with amitriptyline 6 mg/kg): antiallodynic effect similar to amitriptyline 12 mg/kg
Paw withdrawal threshold (pressure) [4, 6]: did not present significant effect on both responses
Vocalization threshold (pressure) [4, 6]: did not present significant effect on both responses
Potentiation of amitriptyline anti-hyperalgesic effect [4]: significantly potentiated amitriptyline hyperalgesic profile from day 6 to day 14; also recorded: significantly potentiated amitriptyline hyperalgesic at day 14
Swimming time (mice subjected to FST): able to potentiate amitriptyline 12 mg/kg
HC activity (ethidium bromide uptake) after LPS-induced opening (Cx43 hemichannels): reversed this effect
Degree of Cx43 hemichannel inhibition, MFA compared with mefloquine (Cx43 hemichannels): less efficient

O=C(O)c1cc(C(F)(F)F)nc2c(C(F)(F)F)cccc12 [2,8-bistrifluoromethyl-4-quinoline carboxylic acid]
Time to maximum plasma concentrations ([5]; in vivo): 2 weeks
Maximum plasma concentrations, higher than those of mefloquine ([5]; relative to mefloquine): about 50%

Cc1ccc(Cl)c(Nc2ccccc2C(=O)O)c1Cl [MFA, meclofenamic acid]
Synergy with amitriptyline in vivo [3]: not observed
Potentiation of amitriptyline anti-hyperalgesic effect [4]: did not present any improved effect of amitriptyline
HC activity (ethidium bromide uptake) after LPS-induced opening (Cx43 hemichannels): reversed this effect
Degree of Cx43 hemichannel inhibition, MFA compared with mefloquine (Cx43 hemichannels): presented a higher inhibitor effect

O=C(O)c1cccnc1Nc1cccc(C(F)(F)F)c1 [niflumic acid]
Synergy with amitriptyline in vivo [3]: not observed

hydroxymefloquine
Presence as metabolite ([5]; in vivo): minute quantities only
